{
  "source": "patent EP0956866A1",
  "about": "“DRUGS FOR AMELIORATING OPHTHALMIC CIRCULATORY DISTURBANCE” (KIRIN BEER KABUSHIKI KAISHA, priority 1996, dated 1998)",
  "origin": "cited, not measured here",
  "key": {"[1]": {"conditions": "disclosed in WO89/10757"}, "[2]": {"conditions": "literature report"}},
  "data": [
    {"compound": "CC1(C)Oc2ccc(C#N)cc2C(N2CCCC2=O)C1O", "note": "(stereo not drawn) [cromakalim]", "values": [
      {"measurement": "ocular pressure", "setting": "[1]", "result": "lower the ocular pressure"},
      {"measurement": "ocular blood flow", "setting": "[2]", "result": "lowers the ocular blood flow"}
    ]},
    {"compound": "CC(N/C(=N\\C#N)Nc1ccncc1)C(C)(C)C", "note": "(stereo not drawn) [pinacidil]", "values": [
      {"measurement": "ocular pressure", "setting": "[1]", "result": "lower the ocular pressure"}
    ]}
  ]
}
